According to patent US20070190172A1, “Enhanced activity biocidal hydrogen peroxide composition” (ASEPTIX TECHNOLOGIES B.V., priority 2006, published 2007):

How the values were obtained:
[1] = tested on: Adenovirus; assay: EN 14476 virucidal quantitative suspension test; format: cell-based
Method: (§1) In a similar way, fungicidal and virucidal activity was tested using tests dedicated for use with fungi of viruses. For fungi or yeasts, the tests according to European norms EN 1275, EN 1650 or EN 13624 were used. For viruses, the test according to European norm EN 14476 was used.
(§2) A composition comprising 2% H2O2 and 1% Monafax 1214 was prepared and tested against Vacciniavirus, Feline Calici Virus and Adenovirus according to the […] norm:
(§3) EN 14476—Chemical disinfectants and antiseptics—Virucidal quantitative suspension test for chemical disinfectants and antiseptics used in human medicine—Test methods and requirements (phase 2/step 1).

[2] = tested on: Feline Calici Virus; assay: EN 14476 virucidal quantitative suspension test; format: cell-based
Method: as §1, §2, §3

[3] = tested on: Staphylococcus aureus; details: background statement; cited from earlier work
[4] = tested on: Staphylococcus aureus; assay: EN 1276 bactericidal suspension test; format: cell-based; details: 1.2% H2O2 + 0.6% surfactant
From the text: (§4) Biocidal activity of a composition for use according to the invention is preferably determined by a controlled bactericidal suspension test conform European Norm for chemical disinfectants and antiseptics EN 1276 (EN 1276: Quantitative suspension test for the evaluation of bactericidal activity of chemical disinfectants and antiseptics used in food, industrial, domestic, and institutional areas: test method and requirements). An effective biocidal composition is a composition that provides at least a log 3 reduction after a 1 minute contact time with a Staphylococcus aureus test suspension of 10^8 cfu per ml, preferably at least a log 4 reduction, more preferably at least a log 5 reduction, most preferably at least a log 6 reduction.
(§5) Bactericidal activity of the exemplified compositions was tested using a controlled bactericidal suspension test conform European Norm for chemical disinfectants and antiseptics EN 1276 (EN 1276: Quantitative suspension test for the evaluation of bactericidal activity of chemical disinfectants and antiseptics used in food, industrial, domestic, and institutional areas: test method and requirements). One ml of a test suspension containing about 10^8 cfu of the test microorganism per ml is added to 8 ml of the composition to be tested, and 1 ml milli-Q water is added. In some experiments, a protein load was added to this suspension according to the EN 1276 procedures to simulate unclean practical conditions. To provide for a clean condition 0.3% Bovine Albumin was added and for a dirty condition 3% Bovine Albumin.
(§6) After 1, 2 and 5 minutes contact time, the amount of viable bacteria was determined.

[5] = tested on: Bacillus cereus; assay: EN 1276 bactericidal suspension test; format: cell-based; details: 1.2% H2O2 + 0.6% surfactant
From the text: as §4, §5, §6
(§7) To simulate unclean practical conditions, a protein load was added according to the EN 1276 procedures to bacterial test suspensions. To provide for a clean condition 0.3% Bovine Albumin was added and for a dirty condition 3% Bovine Albumin. The performance of Monafax 1214 was compared with that of the N,N-Dimethyldecylamine-N-oxide (Barlox 10s of Lonza Ltd.). A H2O2 concentration of 1.2% was used and a 0.6% of the respective surfactants. The solution containing Monafax has a pH of around 2.3 and the solution containing Barlox 10s has a pH of around 5.

[6] = tested on: Enterococcus hirae; assay: EN 1276 bactericidal suspension test; format: cell-based; details: 1.2% H2O2 + 0.6% surfactant
From the text: as §4, §5, §6, §7

[7] = tested on: Lysteria monocytogenes; assay: EN 1276 bactericidal suspension test; format: cell-based; details: 1.2% H2O2 + 0.6% surfactant
From the text: as §4, §5, §6, §7

[8] = tested on: Candida albicans; assay: EN 1276 bactericidal suspension test; format: cell-based; details: 1.2% H2O2 + 0.6% surfactant
From the text: as §4, §5, §6, §7

[9] = clean condition 0.3% Bovine Albumin, 2 min
[10] = clean condition 0.3% Bovine Albumin, 5 min
[11] = dirty condition 3% Bovine Albumin, 2 min
[12] = dirty condition 3% Bovine Albumin, 5 min

OO [2% H2O2, hydrogen peroxide]
log reduction, 5 minutes [1]: log 0.6 | log reduction, 10 minutes [1]: log 0.6 | log reduction, 3 minutes [2]: log 0.2 | log reduction, 5 minutes [2]: log 0.9

OO [3% H2O2, hydrogen peroxide]
log reduction, 5 minutes [1]: log 0.5 | log reduction, 10 minutes [1]: log 0.6

OO [3% w/w hydrogen peroxide, hydrogen peroxide]
time to achieve a greater than 6 log reduction in Staphylococcus aureus [3]: 20 minutes

CCCCCCCCCC[N+](C)(C)[O-] [Barlox 10s (Lonza), N,N-Dimethyldecylamine-N-oxide]
number of colonies, clean, 2 min [4, 9]: >300 | number of colonies, clean, 5 min [4, 10]: >300 | number of colonies, dirty, 2 min [4, 11]: >300 | number of colonies, dirty, 5 min [4, 12]: >300 | number of colonies, clean, 2 min [5, 9]: >300 | number of colonies, clean, 5 min [5, 10]: >300 | number of colonies, dirty, 2 min [5, 11]: >300 | number of colonies, dirty, 5 min [5, 12]: >300 | number of colonies, clean, 2 min [6, 9]: 8 | number of colonies, clean, 5 min [6, 10]: 0 | number of colonies, dirty, 2 min [6, 11]: 6 | number of colonies, dirty, 5 min [6, 12]: 1 | number of colonies, clean, 2 min [7, 9]: >300 | number of colonies, clean, 5 min [7, 10]: >300 | number of colonies, dirty, 2 min [7, 11]: >300 | number of colonies, dirty, 5 min [7, 12]: >300 | number of colonies, clean, 2 min [8, 9]: 300 | number of colonies, clean, 5 min [8, 10]: 250 | number of colonies, dirty, 2 min [8, 11]: >300 | number of colonies, dirty, 5 min [8, 12]: >300

OO [hydrogen peroxide]
time to achieve a greater than log 6 reduction in Staphylococcus aureus [3]: 20 seconds
